Molecular target: T1, NQR complex (pHERD28C-NQR) (Pseudomonas aeruginosa, UniProt Q9HZK7+Q9HZK8)
T1 construct: gene nqrB; complete nqr operon on pHERD28C plasmid, C-terminal His tag on NqrF, expressed in P. aeruginosa, partially purified on Ni-NTA; with Na(+)-translocating NADH-quinone reductase subunit A; Na(+)-translocating NADH-quinone reductase subunit D; Na(+)-translocating NADH-quinone reductase subunit E; Na(+)-translocating NADH-quinone reductase subunit F
Experiment: in-gel flavin fluorescence of the partially purified complex (SDS gel under UV)
Format: binding
Settings: covalent (retained on SDS gel); bands of subunits NqrB and NqrC

T1 sequence (Q9HZK7 whole entry): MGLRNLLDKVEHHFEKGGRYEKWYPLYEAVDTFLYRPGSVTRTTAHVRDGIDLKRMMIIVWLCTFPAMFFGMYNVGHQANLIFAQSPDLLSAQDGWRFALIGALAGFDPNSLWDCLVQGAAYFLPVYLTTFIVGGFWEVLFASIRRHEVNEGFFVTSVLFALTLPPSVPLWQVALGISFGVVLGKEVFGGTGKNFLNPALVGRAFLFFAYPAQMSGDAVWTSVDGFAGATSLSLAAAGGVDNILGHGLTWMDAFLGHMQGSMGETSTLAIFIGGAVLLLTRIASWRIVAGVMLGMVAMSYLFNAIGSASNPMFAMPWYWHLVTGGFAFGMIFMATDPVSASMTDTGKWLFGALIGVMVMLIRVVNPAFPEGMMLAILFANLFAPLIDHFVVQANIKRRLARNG
T1 sequence (Q9HZK8 whole entry): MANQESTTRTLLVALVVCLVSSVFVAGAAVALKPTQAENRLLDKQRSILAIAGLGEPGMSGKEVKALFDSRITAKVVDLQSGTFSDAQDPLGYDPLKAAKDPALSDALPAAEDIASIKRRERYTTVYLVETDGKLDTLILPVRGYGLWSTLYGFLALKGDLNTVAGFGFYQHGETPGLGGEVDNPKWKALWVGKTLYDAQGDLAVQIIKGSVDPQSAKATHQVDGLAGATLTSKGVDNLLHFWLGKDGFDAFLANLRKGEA
T1 sequence (Q9HZL1 whole entry partner): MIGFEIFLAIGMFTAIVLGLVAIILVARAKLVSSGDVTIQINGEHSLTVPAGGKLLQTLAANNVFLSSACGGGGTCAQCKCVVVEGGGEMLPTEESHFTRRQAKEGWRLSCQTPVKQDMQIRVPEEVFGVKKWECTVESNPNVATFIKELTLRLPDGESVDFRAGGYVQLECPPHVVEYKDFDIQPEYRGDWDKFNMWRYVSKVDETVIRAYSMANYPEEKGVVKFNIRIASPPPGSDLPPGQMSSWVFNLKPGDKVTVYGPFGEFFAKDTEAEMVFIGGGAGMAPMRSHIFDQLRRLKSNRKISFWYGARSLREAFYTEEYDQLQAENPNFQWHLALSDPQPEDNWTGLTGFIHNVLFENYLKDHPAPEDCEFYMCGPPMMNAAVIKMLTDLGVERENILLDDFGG
T1 sequence (Q9HZK6 whole entry partner): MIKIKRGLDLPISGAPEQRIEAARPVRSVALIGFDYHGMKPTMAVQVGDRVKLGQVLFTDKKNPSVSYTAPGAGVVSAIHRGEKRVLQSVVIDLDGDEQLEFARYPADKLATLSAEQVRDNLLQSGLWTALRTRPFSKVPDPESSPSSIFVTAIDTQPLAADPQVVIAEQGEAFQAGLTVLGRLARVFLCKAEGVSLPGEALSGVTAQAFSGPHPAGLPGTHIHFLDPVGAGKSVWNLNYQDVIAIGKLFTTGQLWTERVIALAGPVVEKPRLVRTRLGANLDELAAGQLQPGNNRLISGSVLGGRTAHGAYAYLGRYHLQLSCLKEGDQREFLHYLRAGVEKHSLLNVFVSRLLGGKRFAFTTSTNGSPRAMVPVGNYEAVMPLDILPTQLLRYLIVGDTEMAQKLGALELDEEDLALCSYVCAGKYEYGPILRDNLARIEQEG
T1 sequence (Q9HZK9 whole entry partner): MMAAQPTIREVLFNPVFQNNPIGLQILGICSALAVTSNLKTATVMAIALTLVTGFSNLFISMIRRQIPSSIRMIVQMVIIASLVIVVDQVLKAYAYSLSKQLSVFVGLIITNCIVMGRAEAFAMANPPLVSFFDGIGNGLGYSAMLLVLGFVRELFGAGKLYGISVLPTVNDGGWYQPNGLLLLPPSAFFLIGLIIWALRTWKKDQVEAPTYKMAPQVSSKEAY
T1 sequence (Q9HZL0 whole entry partner): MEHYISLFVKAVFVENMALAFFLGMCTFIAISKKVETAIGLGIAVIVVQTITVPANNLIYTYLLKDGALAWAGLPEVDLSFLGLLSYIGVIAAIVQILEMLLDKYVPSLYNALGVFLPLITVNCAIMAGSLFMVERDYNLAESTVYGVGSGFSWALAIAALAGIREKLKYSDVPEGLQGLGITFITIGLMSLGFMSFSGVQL

SMILES: Cc1cc2nc3c(=O)[nH]c(=O)nc-3n(C[C@H](O)[C@H](O)[C@H](O)COP(=O)(O)O)c2cc1C [FMN]
- in-gel flavin fluorescence of the partially purified complex (SDS gel under UV): two fluorescent bands characteristic of the FMN cofactors of the NqrB and NqrC subunits
